Results from patent US20120128821A1, “PROBIOTIC MICROORGANISMS ISOLATED FROM DONKEY MILK” (EUROLACTIS GROUP SA, priority 2009, published 2012).

Test: Production of organic acids after fermentation in donkey milk (HPLC)
Details: absolute area, produced during fermentation, grown in donkey milk
Procedure: The production of organic acids after fermentation was determined by high-performance liquid chromatography of filtered supernatants (Vulevic, Rastall & Gibson, 2004; Nazzaro et al. 2009), using a Gold System apparatus equipped with an ultraviolet detector (Beckman, CA, USA). Samples were loaded onto a pre-packed Aminex HPX-87 column (300 7.8 mm, Bio-Rad, Hercules, Calif., USA) and eluted with […] sulphuric acid. Total running time was 40 min; flow rate was 0.6 ml/min; injection volume was 20 μl; and detection wavelength was 210 nm.
In the following tables are reported the amount of butyric acid and citric acid produced during fermentation by strains of the invention and some strains of reference, grown in donkey milk. The data are expressed in terms of absolute area (mm^2): […]

Substance: Lactobacillus acidophilus
- Amount of butyric acid: 26.21 mm^2
- Amount of citric acid: 51.37 mm^2
